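Growth conditions: 96-well plates. Treatment: test compound, 48 hours, 5 concentrations. Analysis: linear interpolation between bracketing concentrations; unreached endpoints set to highest concentration. Abbreviation: GI50, concentration required for 50% inhibition of growth. TGI denotes the concentration required for complete inhibition of growth.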
Columns and labels:
Test in all cases: NCI anticancer screen, dose series, 48 h
[1] = test system: SN12C renal
[2] = test system: ACHN renal
[3] = test system: NCI-H460 lung
[4] = test system: SK-MEL-2 melanoma
[5] = test system: PC-3 prostate
[6] = test system: OVCAR-8 ovarian
[7] = test system: OVCAR-3 ovarian
[8] = test system: MCF7 breast
[9] = test system: K-562 leukemia
[10] = test system: HCT-15 colon
[11] = test system: SF-295 CNS
[12] = test system: HCT-116 colon
[13] = test system: OVCAR-5 ovarian
[14] = test system: LOX IMVI melanoma
[15] = test system: DU-145 prostate
[16] = test system: HL-60(TB) leukemia
[17] = test system: SK-MEL-28 melanoma
[18] = test system: M14 melanoma
[19] = test system: U251 CNS
[20] = test system: UACC-257 melanoma
[21] = test system: NCI-H23 lung
[22] = test system: SR leukemia
[23] = test system: HT29 colon
[24] = test system: OVCAR-4 ovarian
[25] = test system: HCC-2998 colon
[26] = test system: SK-MEL-5 melanoma
[27] = test system: MDA-N
[28] = test system: MALME-3M melanoma
[29] = test system: RPMI-8226 leukemia
[30] = test system: A549 NSCLC
[31] = test system: COLO 205 colon
[32] = test system: UO-31 renal
[33] = test system: KM12 colon
[34] = test system: BT-549 breast
[35] = test system: MOLT-4 leukemia
[36] = test system: HOP-62 NSCLC
[37] = test system: EKVX NSCLC
[38] = test system: 786-0 renal
[39] = test system: CAKI-1 renal
[40] = test system: CCRF-CEM leukemia
[41] = test system: MDA-MB-231 breast
[42] = test system: MDA-MB-435
[43] = test system: HOP-92 NSCLC
[44] = test system: NCI/ADR-RES ovarian
[45] = test system: TK-10 renal
[46] = test system: SNB-19 CNS
[47] = test system: SK-OV-3 ovarian
[48] = test system: SNB-75 CNS
[49] = test system: RXF 393 renal
[50] = test system: NCI-H522 lung
[51] = test system: IGROV1 ovarian
[52] = test system: SF-539 CNS
[53] = test system: T-47D breast
[54] = test system: UACC-62 melanoma
[55] = test system: NCI-H226 lung
[56] = test system: SW-620 colon
[57] = test system: SF-268 CNS
[58] = test system: A498 renal
[59] = test system: HS 578T breast

For O=C(O)CCCn1nnc2c(=O)[nH][nH]c(=O)c21, the TGI [1] was > 100 µM, the TGI [2] was > 100 µM and the TGI [3] was > 100 µM. For the same compound, the TGI [4] was > 100 µM, the TGI [5] was > 100 µM and the TGI [6] was > 100 µM. For the same compound, the TGI [7] was > 100 µM, the TGI [8] was > 100 µM and the TGI [9] was > 100 µM. The TGI [10] was > 100 µM, the TGI [11] was > 100 µM and the TGI [12] was > 100 µM. For the same compound, the TGI [13] was > 100 µM, the TGI [14] was > 100 µM and the TGI [15] was > 100 µM. For the same compound, the TGI [16] was > 100 µM, the TGI [17] was > 100 µM and the TGI [18] was > 100 µM. For the same compound, the TGI [19] was > 100 µM, the TGI [20] was > 100 µM and the TGI [21] was > 100 µM. For the same compound, the TGI [22] was > 100 µM, the TGI [23] was > 100 µM and the TGI [24] was > 100 µM. The TGI [25] was > 100 µM, the TGI [26] was > 100 µM and the TGI [27] was > 100 µM. For the same compound, the TGI [28] was > 100 µM, the TGI [29] was > 100 µM and the TGI [30] was > 100 µM. For the same compound, the TGI [31] was > 100 µM, the TGI [32] was > 100 µM and the TGI [33] was > 100 µM. For the same compound, the TGI [34] was > 100 µM, the TGI [35] was > 100 µM and the TGI [36] was > 100 µM. The TGI [37] was > 100 µM, the TGI [38] was > 100 µM and the TGI [39] was > 100 µM. The TGI [40] was > 100 µM, the TGI [41] was > 100 µM and the TGI [42] was > 100 µM. For the same compound, the TGI [43] was > 100 µM, the TGI [44] was > 100 µM and the TGI [45] was > 100 µM. The TGI [46] was > 100 µM.

For c1ccc(CCCCNCc2cc(CNCCCCc3ccccc3)cc(CNCCCCc3ccccc3)c2)cc1, the TGI [1] was 23.5 µM, the TGI [2] was 2.95 µM and the TGI [3] was > 100 µM. For the same compound, the TGI [7] was 2.77 µM, the TGI [9] was > 100 µM and the TGI [10] was 0.368 µM. The TGI [11] was 3.06 µM, the TGI [12] was 6.42 µM and the TGI [13] was 3.22 µM. It also gave a TGI [15] of 2.07 µM, a TGI [16] of 0.434 µM and a TGI [17] of 1.84 µM. It also gave a TGI [18] of 0.33 µM, a TGI [47] of 3.41 µM and a TGI [21] of 2.11 µM. It also gave a TGI [27] of 10.2 µM, a TGI [30] of 0.326 µM and a TGI [31] of 0.644 µM. For the same compound, the TGI [32] was 0.949 µM, the TGI [34] was 2.83 µM and the TGI [38] was 26.4 µM. For the same compound, the TGI [40] was 0.432 µM, the TGI [44] was 1.1 µM and the TGI [46] was 0.908 µM.

With O=C(O)/C=C(\c1nc2ccc([N+](=O)[O-])cc2[nH]1)c1cc(Cl)ccc1O the GI50 [48] was 3.14 µM, the TGI [48] was 27.6 µM and the GI50 [1] was 2.71 µM. The TGI [1] was 33.8 µM, the GI50 [49] was 3.55 µM and the TGI [49] was 21.2 µM. The GI50 [2] was 2.38 µM, the TGI [2] was 10.6 µM and the GI50 [3] was 3.03 µM. The TGI [3] was 17.9 µM, the GI50 [50] was 1.17 µM and the TGI [50] was 5.03 µM. It also gave a GI50 [4] of 2.4 µM, a TGI [4] of 7.59 µM and a GI50 [5] of 2.25 µM. For the same compound, the TGI [5] was > 100 µM, the GI50 [6] was 3.28 µM and the TGI [6] was > 100 µM. For the same compound, the GI50 [8] was 2.36 µM, the TGI [8] was 16.6 µM and the GI50 [9] was 2.8 µM. It also gave a TGI [9] of 16.6 µM, a GI50 [10] of 2.9 µM and a TGI [10] of 20.3 µM. For the same compound, the GI50 [11] was 3.43 µM, the TGI [11] was 20.1 µM and the GI50 [12] was 2.35 µM. The TGI [12] was 7.03 µM, the GI50 [51] was 2.92 µM and the TGI [51] was 39.5 µM. The GI50 [13] was 5.29 µM, the TGI [13] was 43.3 µM and the GI50 [14] was 2.41 µM. For the same compound, the TGI [14] was 11.1 µM, the GI50 [15] was 4.12 µM and the TGI [15] was > 100 µM. It also gave a GI50 [52] of 3.1 µM, a TGI [52] of 17.8 µM and a GI50 [16] of 2.42 µM. The TGI [16] was 30.4 µM, the GI50 [53] was 2.3 µM and the TGI [53] was 9.38 µM. For the same compound, the GI50 [17] was 2.66 µM, the TGI [17] was 14.4 µM and the GI50 [18] was 2.78 µM. The TGI [18] was 12 µM, the GI50 [19] was 3.21 µM and the TGI [19] was 19.2 µM. It also gave a GI50 [47] of 2.44 µM, a TGI [47] of 11.8 µM and a GI50 [20] of 2.37 µM. The TGI [20] was 7.15 µM, the GI50 [54] was 1.45 µM and the TGI [54] was 5.41 µM. For the same compound, the GI50 [21] was 1.96 µM, the TGI [21] was 19.6 µM and the GI50 [55] was 2.32 µM. For the same compound, the TGI [55] was 46.4 µM, the GI50 [22] was 3.23 µM and the TGI [22] was 18.5 µM. The GI50 [23] was 3.51 µM, the TGI [23] was 14.4 µM and the GI50 [24] was 2.72 µM. The TGI [24] was 36.6 µM, the GI50 [25] was 4.13 µM and the TGI [25] was 29.4 µM. It also gave a GI50 [56] of 3.66 µM, a TGI [56] of 17.6 µM and a GI50 [26] of 1.1 µM. For the same compound, the TGI [26] was 4.06 µM, the GI50 [28] was 1.96 µM and the TGI [28] was 7.52 µM. The GI50 [29] was 1.45 µM, the TGI [29] was 37.7 µM and the GI50 [30] was 3.07 µM. It also gave a TGI [30] of 14.1 µM, a GI50 [31] of 2.87 µM and a TGI [31] of 11.2 µM. For the same compound, the GI50 [32] was 1.54 µM, the TGI [32] was 9.01 µM and the GI50 [33] was 2.84 µM. It also gave a TGI [33] of 17.7 µM, a GI50 [34] of 2.3 µM and a TGI [34] of 7.25 µM. For the same compound, the GI50 [35] was 2.26 µM, the TGI [35] was 9.7 µM and the GI50 [36] was 3.55 µM. The TGI [36] was 28.3 µM, the GI50 [57] was 3.62 µM and the TGI [57] was 28.3 µM. The GI50 [58] was 2.46 µM, the TGI [58] was 8.7 µM and the GI50 [37] was 2.44 µM. The TGI [37] was 28.2 µM, the GI50 [38] was 3.77 µM and the TGI [38] was 28.3 µM. It also gave a GI50 [40] of 2.51 µM, a TGI [40] of 12.7 µM and a GI50 [41] of 2.11 µM. It also gave a TGI [41] of 9.25 µM, a GI50 [42] of 2.84 µM and a TGI [42] of 34.5 µM. For the same compound, the GI50 [43] was 0.711 µM, the TGI [43] was 5.35 µM and the GI50 [44] was 2.71 µM. For the same compound, the TGI [44] was > 100 µM, the GI50 [59] was 4.97 µM and the TGI [59] was > 100 µM. The GI50 [45] was 4.11 µM, the TGI [45] was 15.4 µM and the GI50 [46] was 3.5 µM. For the same compound, the TGI [46] was > 100 µM.

Source: PubChem BioAssay (NCI)
